Values of other authors in PMC4562162 (CPT: Pharmacometrics & Systems Pharmacology, 2015).

Tested on: CETP

SMILES: CCC(CC)CC1(C(=O)Nc2ccccc2SC(=O)C(C)C)CCCCC1 [Dalcetrapib]
- effect on LDL-C levels: minimal effects on LDL-C levels
